Where two headings read alike, the source gives them in different places.
Key:
NR1/NR2B [1] = target: NR1/NR2B (Homo sapiens (Human), UniProt Q05586+Q13224); assay: Cell assay: FDSS Ca2+ influx inhibition in HEK293 cells expressing NR1/NR2B; details: Binned Activity;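 also: Fluo-8 Ca2+ signal read on Hamamatsu FDSS 6000 after glutamate, glycine and Ca2+ challenge following 10 min compound preincubation, end/baseline fluorescence ratio compared with MK801 control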
NR1/NR2B [2] = target: NR1/NR2B (Homo sapiens (Human), UniProt Q13224); assay: as above; details: read-out: NR2B NAM IC50
NR1/NR2B (Homo sapiens (Human), UniProt Q13224), sequence (Q13224 27-1484, other chains not shown): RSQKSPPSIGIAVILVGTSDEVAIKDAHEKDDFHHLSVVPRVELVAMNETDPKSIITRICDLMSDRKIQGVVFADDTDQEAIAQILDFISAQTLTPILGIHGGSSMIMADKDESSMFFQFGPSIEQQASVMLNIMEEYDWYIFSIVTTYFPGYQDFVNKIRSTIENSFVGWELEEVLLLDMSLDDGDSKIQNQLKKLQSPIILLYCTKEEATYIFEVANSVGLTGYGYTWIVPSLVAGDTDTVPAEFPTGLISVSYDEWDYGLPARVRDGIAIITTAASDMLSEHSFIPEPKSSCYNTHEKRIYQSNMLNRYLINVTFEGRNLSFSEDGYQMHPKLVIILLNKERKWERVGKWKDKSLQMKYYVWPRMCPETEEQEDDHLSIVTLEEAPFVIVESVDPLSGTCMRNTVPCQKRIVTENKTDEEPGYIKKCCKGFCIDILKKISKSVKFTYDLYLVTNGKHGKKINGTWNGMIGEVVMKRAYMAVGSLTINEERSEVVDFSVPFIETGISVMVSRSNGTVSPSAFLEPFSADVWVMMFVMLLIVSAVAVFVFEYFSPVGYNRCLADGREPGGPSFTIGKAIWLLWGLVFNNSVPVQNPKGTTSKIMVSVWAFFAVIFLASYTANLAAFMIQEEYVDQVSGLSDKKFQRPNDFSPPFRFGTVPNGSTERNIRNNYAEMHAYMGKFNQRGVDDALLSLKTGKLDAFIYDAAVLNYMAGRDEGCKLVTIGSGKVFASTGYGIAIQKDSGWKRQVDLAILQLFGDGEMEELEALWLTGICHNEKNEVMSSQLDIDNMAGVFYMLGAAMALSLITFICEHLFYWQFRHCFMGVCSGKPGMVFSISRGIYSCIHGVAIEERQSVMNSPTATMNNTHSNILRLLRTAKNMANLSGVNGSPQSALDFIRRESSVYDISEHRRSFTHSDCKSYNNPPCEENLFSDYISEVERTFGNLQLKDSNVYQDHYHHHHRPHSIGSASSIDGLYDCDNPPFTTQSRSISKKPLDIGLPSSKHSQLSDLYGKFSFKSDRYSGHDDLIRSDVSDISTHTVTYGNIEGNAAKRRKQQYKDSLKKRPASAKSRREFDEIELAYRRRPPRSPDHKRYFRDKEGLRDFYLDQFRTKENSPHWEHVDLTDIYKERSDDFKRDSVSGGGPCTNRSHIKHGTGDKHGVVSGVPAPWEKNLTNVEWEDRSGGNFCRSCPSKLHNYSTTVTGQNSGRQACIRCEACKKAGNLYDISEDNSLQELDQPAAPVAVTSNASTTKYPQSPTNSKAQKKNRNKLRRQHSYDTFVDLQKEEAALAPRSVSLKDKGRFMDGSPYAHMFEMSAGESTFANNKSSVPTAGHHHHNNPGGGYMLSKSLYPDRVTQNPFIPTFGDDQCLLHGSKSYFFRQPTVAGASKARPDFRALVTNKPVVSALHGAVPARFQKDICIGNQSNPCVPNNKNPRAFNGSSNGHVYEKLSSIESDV

[3] = HEK293 cells expressing NR1/NR2B, Ca2+ influx, binned NR2B NAM IC50
[4] = HEK293 cells expressing NR1/NR2B, Ca2+ influx

NR1/NR2B (Homo sapiens (Human), UniProt Q05586+Q13224), sequence (Q13224 27-1484, other chains not shown): as above

Structure (SMILES)	IC50 (NR1/NR2B [1]; [3])	IC50 (NR1/NR2B [2]; [4])	IC50 (NR1/NR2B [1])	IC50 (NR1/NR2B [2])
O=C(CN1C[C@@H]2CN(Cc3ccccc3)C[C@@H]2C1)c1ccc(O)cc1 [Example 326, 2-(5-benzylhexahydropyrrolo [3,4-c]pyrrol-2(1H)-yl)-1-(4-hydroxy-phenyl)ethanone]	0.1 to 1 µM	0.682 µM	–	–
COc1ccc(C[C@]2(O)C[C@H]3CN(CC(=O)c4ccc(O)cn4)C[C@H]3C2)cc1 [Example 192, 2-[(3aR,5R,6aS)-5-hydroxy-5-[(4-methoxyphenyl)methyl]-octahydrocyclopenta[c]pyrrol-2-yl]-1-(5-hydroxypyridin-2-yl)ethan-1-one]	1 to 10 µM	7.61 µM	–	–
CC(C(=O)c1ccc(O)cc1)N1C[C@H]2C[C@@H](CCc3ccccc3)C[C@H]2C1 (stereo partly drawn) [Example 325, 1-(4-hydroxyphenyl)-2-((3aR,5r,6aS)-5-phenethylhexa-hydrocyclo-penta[c]pyrrol-2(1H)-yl)propan-1-one]	–	–	0.1 to 1 µM	0.192 µM
O=C(CN1C[C@@H]2C[C@@](O)(Cc3ccccc3)C[C@@H]2C1)c1cccc(-c2ccccc2)c1 [Example 268, 1-([1,1′-biphenyl]-3-yl)-2-((3aR,5r,6aS)-5-benzyl-5-hydroxyhexahydrocyclo-penta[c]pyrrol-2(1H)-yl)ethanone]	> 10 µM	10 µM	–	–
COc1cccc(NC(=O)N2C[C@@H]3C[C@@](O)(c4cccc(OC)c4)C[C@@H]3C2)c1 [Example 18, 5-hydroxy-N,5-bis(3-methoxyphenyl)-octahydrocyclopenta[c] pyrrole-2-carboxamide]	> 10 µM	10 µM	–	–
N#Cc1cccc(NC(=O)N2C[C@H]3C[C@@H](c4ccccc4)C[C@H]3C2)c1 [Example 107, N-(3-cyanophenyl)-5-phenyl-octahydrocyclopenta[c] pyrrole-2-carboxamide]	> 10 µM	10 µM	–	–
COc1ccc(C)cc1NC(=O)N1C[C@H]2C[C@@H](c3ccccc3)C[C@H]2C1 [Example 109, N-(2-methoxy-5-methylphenyl)-5-phenyl-octahydrocyclopenta[c] pyrrole-2-carboxamide]	> 10 µM	10 µM	–	–
Oc1ccc([C@H](O)CN2C[C@@H]3C[C@](O)(Cc4ccccc4)C[C@@H]3C2)cc1 [Example 292, (3aR,5S,6aS)-5-benzyl-2-((S)-2-hydroxy-2-(4-hydroxyphenyl)ethyl) octahydrocyclopenta [c]pyrrol-5-ol]	1 to 10 µM	4.71 µM	–	–
Oc1ccc([C@H](O)CN2C[C@@H]3C[C@@](O)(Cc4ccccc4)C[C@@H]3C2)nc1 [Example 165, (3aR,5R,6aS)-5-benzyl-2-((R)-2-hydroxy-2-(5-hydroxypyridin-2-yl)ethyl)octahydrocyclo-penta[c]pyrrol-5-ol]	< 0.1 µM	0.0337 µM	–	–
O=C(CN1C[C@@H]2C[C@@](O)(Cc3ccc(F)cc3F)C[C@@H]2C1)c1ccc(O)cn1 [Example 230, 2-((3aR,5r,6aS)-5-(2,4-difluorobenzyl)-5-hydroxyhexahydrocyclo-penta[c]pyrrol-2(1H)-yl)-1-(5-hydroxypyridin-2-yl)ethanone]	1 to 10 µM	2.16 µM	–	–
CC(C)(O)c1ccc(C(=O)CN2C[C@@H]3C[C@@](O)(Cc4ccccc4)C[C@@H]3C2)cc1 [Example 138, 2-((3aR,5r,6aS)-5-benzyl-5-hydroxyhexahydrocyclo-penta[c]pyrrol-2(1H)-yl)-1-(4-(2-hydroxypropan-2-yl)phenyl)ethanone]	> 10 µM	10 µM	–	–
O=C(CN1C[C@@H]2C[C@@](O)(Cc3c(F)cccc3F)C[C@@H]2C1)c1ccc(O)cc1 [Example 241, 2-[(3aR,5R,6aS)-5-[(2,6-difluorophenyl)methyl]-5-hydroxy-octahydrocyclopenta[c]pyrrol-2-yl]-1-(4-hydroxyphenyl)ethan-1-one]	0.1 to 1 µM	0.118 µM	–	–
O=C(CN1C[C@@H]2C[C@@](O)(Cc3ccccc3)C[C@@H]2C1)c1cnc(O)cn1 [Example 187, 2-((3aR,5r,6aS)-5-benzyl-5-hydroxyhexahydrocyclo-penta[c]pyrrol-2(1H)-yl)-1-(5-hydroxypyrazin-2-yl)ethanone]	> 10 µM	10 µM	–	–
O=C(CN1C[C@@H]2C[C@@](O)(Cc3ccccc3)C[C@@H]2C1)c1ccc(O)c(F)c1 [Example 151, 2-((3aR,5r,6aS)-5-benzyl-5-hydroxyhexahydrocyclo-penta[c]pyrrol-2(1H)-yl)-1-(3-fluoro-4-hydroxyphenyl)ethanone]	0.1 to 1 µM	0.372 µM	–	–
O=C(CN1C[C@H]2C[C@@H](CCc3ccccc3)C[C@H]2C1)c1ccc(O)cc1 [Example 324, 1-(4-hydroxyphenyl)-2-((3aR,5r,6aS)-5-phenethylhexa-hydrocyclo-penta[c]pyrrol-2(1H)-yl)ethanone]	0.1 to 1 µM	0.215 µM	–	–
COc1cccc(C[C@]2(O)C[C@H]3CN(CC(=O)c4ccc(O)cn4)C[C@H]3C2)c1 [Example 193, 2-((3aR,5r,6aS)-5-hydroxy-5-(3-meth-oxybenzyl)hexahydro-cyclopenta[c]pyrrol-2(1H)-yl)-1-(5-hydroxypyridin-2-yl)ethanone]	> 10 µM	10 µM	–	–
CC(C)(C)c1ccc([C@]2(O)C[C@H]3CN(C(=O)Nc4cccc(C#N)c4)C[C@H]3C2)cc1 [Example 52]	> 10 µM	10 µM	–	–
O=C(CN1C[C@H]2C[C@@H](Cc3ccccc3)C[C@H]2C1)c1ccc(O)c(F)c1 [Example 307, 2-[(3aR,5S,6aS)-5-benzyl-octahydrocyclopenta[c]pyrrol-2-yl]-1-(3-fluoro-4-hydroxyphenyl) ethan-1-one]	< 0.1 µM	0.0412 µM	–	–
COc1cccc([C@]2(O)C[C@H]3CN(CC(=O)c4ccccc4)C[C@H]3C2)c1 [Example 59, 2-[5-hydroxy-5-(3-methoxyphenyl)-octahydrocyclopenta[c]pyrrol-2-yl]-1-phenylethan-1-one]	> 10 µM	–	–	10 µM
O=C(Nc1cccc(Cl)c1)N1C[C@H]2C[C@@H](c3ccccc3)C[C@H]2C1 [Example 106, N-(3-chlorophenyl)-5-phenyl-octahydrocyclopenta[c] pyrrole-2-carboxamide]	> 10 µM	10 µM	–	–
Oc1ccc([C@@H](O)CN2C[C@@H]3C[C@](O)(Cc4ccccc4)C[C@@H]3C2)cc1 [Example 2291, (3aR,5R,6aS)-5-benzyl-2-((R)-2-hydroxy-2-(4-hydroxyphenyl)ethyl) octahydrocyclopenta [c]pyrrol-5-ol]	0.1 to 1 µM	0.332 µM	–	–
O=C(CN1C[C@@H]2C[C@@](O)(Cc3ccc(F)cc3F)C[C@@H]2C1)c1ccc(O)cc1 [Example 238, 2-(5-(2,4-difluorobenzyl)-5-hydroxyhexahydrocyclo-penta[c]pyrrol-2(1H)-yl)-1-(4-hydroxyphenyl)ethanone]	< 0.1 µM	0.0516 µM	–	–
CC(=O)Nc1ccc(C(=O)CN2C[C@@H]3C[C@@](O)(Cc4ccccc4)C[C@@H]3C2)cn1 [Example 282, N-(5-(2-((3aR,5r,6aS)-5-benzyl-5-hydroxyhexahydrocyclo-penta[c]pyrrol-2(1H)-yl)acetyl)pyridin-2-yl)acetamide]	> 10 µM	10 µM	–	–
CC(C)(C)c1ccc([C@]2(O)C[C@H]3CN(C(=O)Nc4cccc(C(F)(F)F)c4)C[C@H]3C2)cc1 [Example 55, 5-(4-tert-butylphenyl)-5-hydroxy-N-[3-(trifluoromethyl)phenyl]-octahydrocyclopenta[c] pyrrole-2-carboxamide]	> 10 µM	10 µM	–	–
O=C(CN1C[C@@H]2CC(O)(CCc3ccccc3)C[C@@H]2C1)c1ccc(-c2cccc(F)c2)cc1 (stereo partly drawn) [Example 270, 1-[4-(3-fluorophenyl)phenyl]-2-[5-hydroxy-5-(2-phenylethyl)-octahydrocyclopenta[c]pyrrol-2-yl]ethan-1-one]	> 10 µM	10 µM	–	–
O=C(CN1C[C@@H]2CN(Cc3ccccc3)C[C@@H]2C1)c1ccc(O)cn1 [Example 328, 2-(5-benzylhexahydropyrrolo [3,4-c]pyrrol-2(1H)-yl)-1-(5-hydroxypyridin-2-yl)ethanone]	> 10 µM	10 µM	–	–
CC(C)(C)OC(=O)Nc1ccc(C(=O)CN2C[C@@H]3C[C@@](O)(Cc4ccccc4)C[C@@H]3C2)cn1 [Example 284, tert-butyl (5-(2-(5-benzyl-5-hydroxyhexahydrocyclo-penta[c]pyrrol-2(1H)-yl)acetyl)pyridin-2-yl)carbamate]	> 10 µM	10 µM	–	–
O=C(CN1C[C@H]2C[C@H](Cc3ccccc3)C[C@H]2C1)c1ccc(O)c(F)c1 [Example 308, 2-[(3aR,5R,6aS)-5-benzyl-octahydrocyclopenta[c]pyrrol-2-yl]-1-(3-fluoro-4-hydroxyphenyl) ethan-1-one]	< 0.1 µM	0.0522 µM	–	–
Cc1ccccc1-c1ccc(C(=O)CN2C[C@@H]3C[C@@](O)(Cc4ccccc4)C[C@@H]3C2)cc1 [Example 260, 2-((3aR,5r,6aS)-5-benzyl-5-hydroxyhexahydrocyclo-penta[c]pyrrol-2(1H)-yl)-1-(2′-methyl-[1,1′-biphenyl]-4-yl)ethanone]	> 10 µM	10 µM	–	–
O=C(CN1C[C@@H]2C[C@@](O)(Cc3ccccc3)C[C@@H]2C1)c1ccc(-c2cccnc2)cc1 [Example 267, 2-((3aR,5r,6aS)-5-benzyl-5-hydroxyhexahydrocyclo-penta[c]pyrrol-2(1H)-yl)-1-(4-(pyridin-3-yl)phenyl)ethanone]	> 10 µM	10 µM	–	–
